Legend:
Test in all cases: relative viability (nuclei count vs DMSO), 5 days (fraction); higher = more cells survive
[1] = compound: NC(=O)[C@@H](CCC(F)(F)F)N(Cc1ccc(-c2ncon2)cc1F)S(=O)(=O)c1ccc(Cl)cc1 [Avagacestat]
Summary of the method: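 Following overnight incubation at 37 °C, lung cancer cell lines in 1536-well plates were pinned with five library-drug doses (not always all listed) in √10 steps on vehicle-anchored plates. The cells then spent 5 days without medium change before a combined fix, permeabilisation and Hoechst stain, 4× imaging and MetaXpress nuclear counts. Viability is the treated-to-vehicle ratio of nuclei, taken as the median across plates. Only plates with control CV below 25% and at least one doubling passed.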

[2] = compound: NC(=O)[C@@H](CCC(F)(F)F)N(Cc1ccc(-c2ncon2)cc1F)S(=O)(=O)c1ccc(Cl)cc1 [Avagacestat] + N=C(N)NC(=N)NCCc1ccccc1 [Phenformin] (partner 250 µM)
Summary of the method: (§1)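 Dosing by pin tool came one day after lung cancer cell lines were seeded in 1536-well plates, using either one drug or a fixed anchor-drug dose plus five library-drug doses (not always all listed) in √10 steps. After 5 days, nuclei were counted on 4× images. Relative viability is treated-well nuclei count divided by vehicle-well nuclei count, and values are medians of duplicate plates.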

[3] = compound: NC(=O)[C@@H](CCC(F)(F)F)N(Cc1ccc(-c2ncon2)cc1F)S(=O)(=O)c1ccc(Cl)cc1 [Avagacestat] + COc1cccc2cc(-c3nc([C@H]4CC[C@H](C(=O)O)CC4)n4ncnc(N)c34)[nH]c12 [OSI-027] (partner 0.5 µM)
Summary of the method: as §1

[4] = compound: NC(=O)[C@@H](CCC(F)(F)F)N(Cc1ccc(-c2ncon2)cc1F)S(=O)(=O)c1ccc(Cl)cc1 [Avagacestat] + CC(=O)Nc1cccc(-n2c(=O)n(C3CC3)c(=O)c3c(Nc4ccc(I)cc4F)n(C)c(=O)c(C)c32)c1 [Trametinib] (partner 0.02 µM)
Summary of the method: as §1

| Cell Line | relative viability ([1]; 0.08 µM) | relative viability ([1]; 0.253 µM) | relative viability ([1]; 0.8 µM) | relative viability ([1]; 2.53 µM) | relative viability ([1]; 8 µM) | relative viability ([2]; first compound 0.08 µM) | relative viability ([2]; first compound 0.253 µM) | relative viability ([2]; first compound 0.8 µM) | relative viability ([2]; first compound 2.53 µM) | relative viability ([2]; first compound 8 µM) | relative viability ([3]; first compound 0.08 µM) | relative viability ([3]; first compound 0.253 µM) | relative viability ([3]; first compound 0.8 µM) | relative viability ([3]; first compound 2.53 µM) | relative viability ([3]; first compound 8 µM) | relative viability ([4]; first compound 0.08 µM) | relative viability ([4]; first compound 0.253 µM) | relative viability ([4]; first compound 0.8 µM) | relative viability ([4]; first compound 2.53 µM) | relative viability ([4]; first compound 8 µM) |
| --- | --- | --- | --- | --- | --- | --- | --- | --- | --- | --- | --- | --- | --- | --- | --- | --- | --- | --- | --- | --- |
| LOU-NH91 | 1.05 | 0.881 | 1.14 | 0.917 | 0.968 | 0.708 | 0.652 | 0.862 | 0.717 | 0.754 | 0.688 | 0.656 | 0.789 | 0.723 | 0.716 | 0.877 | 0.801 | 0.839 | 0.765 | 0.765 |
| LU99A | 0.977 | 0.997 | 1.12 | 0.907 | 0.986 | 0.867 | 0.944 | 0.923 | 0.821 | 0.902 | 0.285 | 0.28 | 0.278 | 0.286 | 0.266 | 0.515 | 0.485 | 0.555 | 0.485 | 0.534 |
| LXF-289 | 0.995 | 1.05 | 1.05 | 0.994 | 0.975 | 0.516 | 0.505 | 0.495 | 0.495 | 0.476 | 0.817 | 0.757 | 0.703 | 0.673 | 0.804 | 0.725 | 0.656 | 0.767 | 0.659 | 0.636 |
| NCI-H23 | 1.01 | 1.08 | 1.17 | 1.03 | 0.944 | 0.941 | 0.86 | 0.761 | 0.859 | 0.851 | 0.778 | 0.619 | 0.8 | 0.627 | 0.537 | 0.43 | 0.261 | 0.392 | 0.414 | 0.4 |
| NCI-H322M | 0.916 | 0.833 | 0.97 | 0.74 | 0.846 | 0.733 | 0.748 | 0.712 | 0.69 | 0.65 | 0.519 | 0.562 | 0.571 | 0.501 | 0.488 | 0.48 | 0.457 | 0.343 | 0.465 | 0.443 |
| NCI-H358 | 1.02 | 1 | 1.03 | 0.835 | 0.835 | 0.357 | 0.352 | 0.391 | 0.323 | 0.325 | 0.895 | 0.79 | 0.768 | 0.682 | 0.738 | 0.14 | 0.114 | 0.129 | 0.127 | 0.119 |
| NCI-H1299 | 1.03 | 1.11 | 1.06 | 1.04 | 1 | – | – | – | – | – | – | – | – | – | – | – | – | – | – | – |
| NCI-H1563 | 0.984 | 0.986 | 0.968 | 0.798 | 0.813 | 0.665 | 0.669 | 0.746 | 0.646 | 0.658 | 0.829 | 0.776 | 0.736 | 0.735 | 0.719 | – | – | – | – | – |
| NCI-H1648 | 0.583 | 0.705 | 0.513 | 0.55 | 0.457 | – | – | – | – | – | 0.266 | 0.273 | 0.271 | 0.255 | 0.232 | 0.443 | 0.426 | 0.36 | 0.318 | 0.32 |
| NCI-H1703 | 1.24 | 1.03 | 0.975 | 0.955 | 0.873 | – | – | – | – | – | – | – | – | – | – | – | – | – | – | – |

Source: the supplement of paper PMC10307832
